Positions of bridges follow the written chain, without caps; N, C: chain ends. Non-standard residues stand in square brackets, D forms with d. No end group written: not given here. Cit = NC(=O)NCCC[C@H](N)C(=O)O; Ahx = NCCCCCC(=O)O
System: autoimmune antibodies (anti-CCP antibody) in serum samples
Assay: Sandwich ELISA of patient serum samples on peptide-coated microplates (absorbance at 450 nm)
Type: binding, human
Settings: diluted 200 times; for Average (absorbance) Normal: normal control group serum samples (25 subjects); for Average (absorbance) SLE: SLE patient serum samples (25 subjects); for Average (absorbance) OA: OA patient serum samples (15 subjects); for Average (absorbance) RA: RA patient serum samples (30 subjects), peptide coated at about 10 μg/ml
Method: Sandwich enzyme linked immunosorbent assay (ELISA) using the peptides of Table 1 were performed on the samples from 4 test groups. Serum samples of RA patients (30 subjects), OA patients (15 subjects), SLE patients (25 subjects), and control group samples (25 normal subjects) were prepared.
Each of the prepared peptides of Table 1 was diluted with PBS to about 10 μg/ml, added by about 100 μl to a microplate, and then coated at about 4° C. overnight, followed by adding about 200 μl of BSA solution (10 mg/mL) to each well of the peptide coated microplate to block at room temperature for about 1 hour, and washing the microplate with a PBS including about 0.1% of Tween-20 three times to use the microplate it in this assay. The patient samples and normal control group sample were diluted by 200 times and added triplet by about 100 μl to the wells of the peptide-coated microplate. After being cultured at room temperature for about 1 hour, the resulting microplate was washed three times in the same manner as the above-described washing. To detect autoimmune antibodies in the samples, 100 μl of an anti-human IgG antibody solution ([…]) was added to each cell of the microplate and incubated at room temperature for about 1 hour, followed by washing three times in the same manner as the above-described washing. After 100 μl of a TMB substrate solution was added thereto and reacted at room temperature for about 30 minutes, finally 100 μl of a 2M sulfuric acid solution was added as a stop solution to terminate the reaction, followed by absorbance measurement at a wavelength of about 450 nm using a microplate reader.
Autoimmune antibody levels in the blood samples of normal patients and various types of arthritis patients were analyzed by enzyme linked immunosorbent assay (ELISA) using the peptides of SEQ ID NOS.
Autoimmune antibody levels in the blood samples of normal patients and various arthritis patients were analyzed by ELISA using the peptides of SEQ ID NOS.

Substance	Average (absorbance) Normal	Average (absorbance) SLE	Average (absorbance) OA	Average (absorbance) RA
ZZH19: ZZHSHQESTXGRSRGSGZZ; aminocaproic acid (Z) added to N- and C-terminals of HSH15 ([Ahx][Ahx]HSHQEST[Cit]GRSRGSG[Ahx][Ahx])	0.1609			
CCP10P: HCHQESTXGPSRGCG; CCP with 10th amino acid arginine substituted by proline (HCHQEST[Cit]GPSRGCG; disulfide 2-14)	0.0994			
CCP11A: HCHQESTXGRARGCG; CCP with 11th amino acid serine substituted by alanine (HCHQEST[Cit]GRARGCG; disulfide 2-14)	0.1125	0.3321		
HSH15: HSHQESTXGRSRGSG; CCP with disulfide bond-forming cysteine substituted with serine, X citrulline (HSHQEST[Cit]GRSRGSG)	0.1067	0.2704	0.2277	0.1942
CCP12P: HCHQESTXGRSPGCG; CCP with 12th amino acid substituted by proline (HCHQEST[Cit]GRSPGCG; disulfide 2-14)	0.1250	0.3619	0.2847	
CCPPAP: HCHQESTXGPAPGCG; CCP with 10th, 11th, 12th amino acids substituted by proline, alanine, proline (HCHQEST[Cit]GPAPGCG; disulfide 2-14)	0.1140	0.3287	0.2591	
ZZH17: ZZHSHQESTXGRSRGSG; aminocaproic acid (Z) added to N-terminal of HSH15 ([Ahx][Ahx]HSHQEST[Cit]GRSRGSG)	0.1102	0.2738		
CCP: cyclic citrullinated peptide HCHQESTXGRSRGCG, X citrulline (HCHQEST[Cit]GRSRGCG; disulfide 2-14) [reference compound]	0.0874	0.2347	0.2314	0.2522
RF: rheumatoid factor peptide EGLHNHY (listed as Homo sapiens) [reference compound]	0.1484	0.3417	0.2791	0.2534
HSH17: HSHQESTXGRSRGSGZZ; aminocaproic acid (Z) added to C-terminal of HSH15 (HSHQEST[Cit]GRSRGSG[Ahx][Ahx])	0.1412			

Source: patent publication US10266568B2, “Cyclic citrullinated peptide, rheumatoid arthritis diagnosis composition including the same, rheumatoid arthritis diagnosis method using the peptide or the composition, and method of screening diagnostic marker for rheumatoid arthritis” (KOREA INSTITUTE OF SCIENCE AND TECHNOLOGY, priority 2015, dated 2019)
